From PubChem BioAssay (NCI) come the findings set out here.

Some test systems named below: MCF7 breast; BT-549 breast; MDA-MB-435; HS 578T breast; PC-3 prostate; NCI/ADR-RES ovarian.
Common to all, as to experiment: NCI anticancer screen, dose series, 48 h

“And” between values parts separate entries of the source, which are not always exact repeats. Equal entries are not always repeated.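 Results reflect a 48-hour exposure of cells in 96-well plates to compound at five concentrations. At the GI50, growth is halved. TGI: concentration producing complete growth inhibition.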

Regarding `CCc1ccc(NC(=O)COC(=O)c2cc([N+](=O)[O-])ccc2Sc2nnnn2C)cc1`, the GI50 in the test on MCF7 breast is 20.1 µM; in the test on BT-549 breast, 4.42 µM; in the test with MDA-MB-435, 3.42 µM; with HS 578T breast, 2.65 µM; in the test on PC-3 prostate it was 15.2 µM; in the test on NCI/ADR-RES ovarian, 5.66 µM. The TGI was found to be 60.6 µM in the test with MCF7 breast; 26.6 µM with BT-549 breast; 21.4 µM in the test with MDA-MB-435; 9.36 µM in the test on HS 578T breast; 84.5 µM in the test with PC-3 prostate; 47.2 µM in the test on NCI/ADR-RES ovarian.

In the case of `CC[C@H](CO)Nc1nc(NCc2ccccc2)n2ncc(C(C)C)c2n1`, the GI50 with MCF7 breast is 0.592 µM; with BT-549 breast, 1.56 µM; in the test with MDA-MB-435, 2.06 µM; in the test on HS 578T breast it was 1.59 µM; with PC-3 prostate it was 0.927 µM; with NCI/ADR-RES ovarian, 2.08 µM. For the same molecule, the TGI worked out at 7.99 µM with MCF7 breast; 5.29 µM with BT-549 breast; 10.1 µM in the test on MDA-MB-435; 6.16 µM with HS 578T breast; 12.3 µM in the test on PC-3 prostate; 15.7 µM in the test with NCI/ADR-RES ovarian.

For `CCOc1ccccc1N=Nc1c(C)[nH]n(-c2nc(-c3ccccc3)cs2)c1=O`, the GI50 is 12.4 µM in the test on MCF7 breast; 29.2 µM in the test with BT-549 breast; more than 100 µM in the test on MDA-MB-435; 29.2 µM in the test on HS 578T breast; 34.7 µM in the test with PC-3 prostate; 37.6 µM in the test on NCI/ADR-RES ovarian. For the same molecule, the TGI in the test with MCF7 breast is more than 100 µM; with BT-549 breast it was more than 100 µM; in the test on MDA-MB-435, more than 100 µM; with HS 578T breast it was more than 95.1 µM; in the test on PC-3 prostate, more than 100 µM; with NCI/ADR-RES ovarian, more than 100 µM.

Regarding `COc1cc(C(=O)NC2CCN(C)CC2)c(F)cc1Nc1ncc2c(n1)N(C1CCCC1)CC(F)(F)C(=O)N2C`, the GI50 in the test on MCF7 breast was less than 0.01 µM; with BT-549 breast it was 1.87 µM; with HS 578T breast, less than 0.0342 µM; in the test on PC-3 prostate, less than 0.0201 µM; with NCI/ADR-RES ovarian, less than 0.0329 µM. In addition, the TGI is 11.9 µM in the test with MCF7 breast; 20 µM in the test with BT-549 breast; 10.4 µM in the test on HS 578T breast; 18.3 µM in the test with PC-3 prostate; 13.6 µM with NCI/ADR-RES ovarian.

Consider `O=C(NC[C@H](O)CO)c1ccncc1Nc1ccc(I)cc1F`, for which the GI50 in the test on MCF7 breast was > 10 µM and 15.5 µM; in the test on BT-549 breast it was > 10 µM and 23.3 µM; in the test with MDA-MB-435, 0.00907 µM and 0.0257 µM; in the test on HS 578T breast, more than 64.1 µM; in the test on PC-3 prostate, > 10 µM and 61 µM; in the test on NCI/ADR-RES ovarian, > 10 µM and 35 µM. The TGI is more than 100 µM with MCF7 breast; more than 95 µM in the test on BT-549 breast; more than 100 µM with MDA-MB-435; more than 100 µM in the test on HS 578T breast; more than 100 µM in the test on PC-3 prostate; more than 100 µM in the test on NCI/ADR-RES ovarian.

In the case of `C1CN(SSN2CCOCC2)CCO1`, the GI50 with MCF7 breast is 23.3 µM; in the test with BT-549 breast, 30 µM; in the test with MDA-MB-435, 33.8 µM; with HS 578T breast, 30.3 µM; in the test with PC-3 prostate, 25 µM; in the test on NCI/ADR-RES ovarian it was 35.3 µM. Moreover, the TGI is 64.4 µM in the test on MCF7 breast; more than 100 µM in the test on BT-549 breast; more than 100 µM in the test on MDA-MB-435; more than 100 µM in the test with HS 578T breast; more than 100 µM in the test with PC-3 prostate; more than 100 µM with NCI/ADR-RES ovarian.

On to `O=C(Nc1ccc(Cl)c(Cl)c1)O/N=C\c1c(Cl)ccc([N+](=O)[O-])c1Cl`, for which the GI50 in the test with MCF7 breast is 0.404 µM; in the test on BT-549 breast, 2.57 µM; in the test with MDA-MB-435 it was 1.9 µM; in the test with HS 578T breast, 3.35 µM; with PC-3 prostate, 1.58 µM; with NCI/ADR-RES ovarian it was 4.33 µM. Further, the TGI was 2 µM in the test on MCF7 breast; 6.42 µM with BT-549 breast; 4.43 µM with MDA-MB-435; 38.7 µM with HS 578T breast; 3.74 µM with PC-3 prostate; 17.2 µM in the test with NCI/ADR-RES ovarian.

For `O=C(/C=C/c1ccc([N+](=O)[O-])cc1)c1ccc2c3c(cccc13)CC2`, the GI50 in the test with MCF7 breast was 2.7 µM; in the test on BT-549 breast it was 23.6 µM; in the test with MDA-MB-435 it was 15.8 µM; in the test with PC-3 prostate it was 4.72 µM; in the test with NCI/ADR-RES ovarian it was 20.8 µM. Moreover, the TGI was more than 25.4 µM with MCF7 breast; more than 90.4 µM in the test with BT-549 breast; more than 63.4 µM with MDA-MB-435; more than 30.8 µM with HS 578T breast; more than 100 µM in the test on PC-3 prostate; more than 100 µM in the test on NCI/ADR-RES ovarian.

`Nc1[nH]nc2nc(-c3cccs3)cc(C(F)(F)F)c12`: the GI50 in the test with MCF7 breast was more than 15.8 µM; in the test on BT-549 breast it was more than 24.1 µM; in the test on MDA-MB-435 it was more than 25 µM; in the test with HS 578T breast it was more than 25 µM; with PC-3 prostate it was more than 25 µM; with NCI/ADR-RES ovarian, more than 25 µM. The TGI in the test with MCF7 breast, in the test on BT-549 breast, in the test on MDA-MB-435, with HS 578T breast, in the test on PC-3 prostate and with NCI/ADR-RES ovarian was more than 25 µM each time.

In the case of `Nc1nc(Nc2ccc(C3CCC(N4CCOCC4)CC3)cc2)nn1-c1ccccn1` (centres undefined), the GI50 in the test on MCF7 breast is 3.23 µM; in the test with BT-549 breast, 2.52 µM; in the test with MDA-MB-435, 3.57 µM; with HS 578T breast it was 1.64 µM; in the test on PC-3 prostate it was 5.76 µM; in the test on NCI/ADR-RES ovarian it was 9.33 µM. The TGI in the test on MCF7 breast was 35.3 µM; in the test on BT-549 breast it was 6.54 µM; with MDA-MB-435 it was more than 100 µM; with HS 578T breast, 7.41 µM; with PC-3 prostate it was more than 100 µM; in the test with NCI/ADR-RES ovarian, more than 100 µM.

Take `CCSCCCN(CCCSCC)CCCSCC`: the TGI with MCF7 breast, in the test on BT-549 breast, with MDA-MB-435, in the test on PC-3 prostate and in the test on NCI/ADR-RES ovarian was more than 100 µM each time.

As to `CS[C@]12C(=O)C[C@@]3(C)[C@@H](CC[C@]3(O)C(=O)CO)[C@@H]1CCC1=CC(=O)CC[C@@]12C`, the TGI in the test on MCF7 breast, with BT-549 breast, with MDA-MB-435, in the test with HS 578T breast, in the test on PC-3 prostate and in the test with NCI/ADR-RES ovarian was more than 100 µM in each case.

As for `COC(=O)c1cc2ccc(OC(C)=O)c(OC(C)=O)c2cn1`, the GI50 was 16.7 µM with MCF7 breast and 27.3 µM in the test on NCI/ADR-RES ovarian. Moreover, the TGI was 6 µM and 35.5 µM in the test with MCF7 breast; 3.16 µM and 3.26 µM with MDA-MB-435; 50.9 µM with PC-3 prostate; 70 µM in the test with NCI/ADR-RES ovarian.
